Assay results from publication PMC4188605, “Biochemical and Pharmacological Characterization of the Human Lymphocyte Antigen B-Associated Transcript 5 (BAT5/ABHD16A)” (PLoS ONE, 2014).
“Also recorded” adds a separate entry of the source.

Tests used:
[1] = target: T1, hFAAH (Homo sapiens, UniProt O00519); assay: FAAH activity assay, hFAAH-COS7 membranes (3H-anandamide); format: biochemical
T1 construct: expressed in transfected cells; host or cells: COS-7
T1 sequence (O00519 1-579): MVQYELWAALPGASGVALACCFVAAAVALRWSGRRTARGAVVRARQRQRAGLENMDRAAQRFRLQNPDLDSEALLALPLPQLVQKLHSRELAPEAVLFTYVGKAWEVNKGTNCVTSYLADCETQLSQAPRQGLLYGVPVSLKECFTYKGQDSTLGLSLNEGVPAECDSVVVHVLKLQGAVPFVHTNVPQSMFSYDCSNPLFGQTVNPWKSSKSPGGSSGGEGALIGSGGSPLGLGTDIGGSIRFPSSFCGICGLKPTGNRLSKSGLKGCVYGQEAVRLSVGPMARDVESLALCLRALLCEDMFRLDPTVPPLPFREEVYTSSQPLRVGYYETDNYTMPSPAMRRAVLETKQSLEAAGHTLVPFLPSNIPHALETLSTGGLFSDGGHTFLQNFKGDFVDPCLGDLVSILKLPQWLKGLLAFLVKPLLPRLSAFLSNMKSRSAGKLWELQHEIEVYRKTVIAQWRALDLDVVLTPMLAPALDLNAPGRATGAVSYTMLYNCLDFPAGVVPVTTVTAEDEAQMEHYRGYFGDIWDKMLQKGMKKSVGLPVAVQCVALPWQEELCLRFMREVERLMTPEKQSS

[2] = target: T2, ABHD6 (Mus musculus, UniProt Q8R2Y0); assay: Competitive ABPP, mouse brain membrane proteome: ABHD6 band; conditions: at the highest concentration (10^−5 M)
T2 sequence (Q8R2Y0 1-336): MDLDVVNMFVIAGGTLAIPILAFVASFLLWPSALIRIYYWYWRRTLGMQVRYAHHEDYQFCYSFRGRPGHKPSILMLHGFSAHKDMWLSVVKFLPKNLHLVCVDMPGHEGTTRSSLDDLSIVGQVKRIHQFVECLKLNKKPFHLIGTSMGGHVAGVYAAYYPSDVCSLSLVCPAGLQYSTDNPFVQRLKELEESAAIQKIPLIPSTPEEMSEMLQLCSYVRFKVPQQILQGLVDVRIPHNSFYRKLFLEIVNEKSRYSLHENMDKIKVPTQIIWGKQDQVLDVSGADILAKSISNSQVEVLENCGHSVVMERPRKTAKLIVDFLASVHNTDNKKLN

[3] = tested on: LYPLA1; set-up: method as in PMID 20418879; conditions: originally reported; read-out: IC50 in vitro towards LYPLA1; cited from earlier work
[4] = target: T3, hBAT5 (Homo sapiens, UniProt O95870); assay: Inhibition of 1-LG hydrolysis in hBAT5-HEK293 lysates (fluorescent glycerol assay); format: biochemical; set-up: host or cells: HEK293; conditions: 1-LG 25 µM; 30 min inhibitor pretreatment; monitored 90 min; mean, n=3; read-out: IC50
T3 sequence (O95870 1-558): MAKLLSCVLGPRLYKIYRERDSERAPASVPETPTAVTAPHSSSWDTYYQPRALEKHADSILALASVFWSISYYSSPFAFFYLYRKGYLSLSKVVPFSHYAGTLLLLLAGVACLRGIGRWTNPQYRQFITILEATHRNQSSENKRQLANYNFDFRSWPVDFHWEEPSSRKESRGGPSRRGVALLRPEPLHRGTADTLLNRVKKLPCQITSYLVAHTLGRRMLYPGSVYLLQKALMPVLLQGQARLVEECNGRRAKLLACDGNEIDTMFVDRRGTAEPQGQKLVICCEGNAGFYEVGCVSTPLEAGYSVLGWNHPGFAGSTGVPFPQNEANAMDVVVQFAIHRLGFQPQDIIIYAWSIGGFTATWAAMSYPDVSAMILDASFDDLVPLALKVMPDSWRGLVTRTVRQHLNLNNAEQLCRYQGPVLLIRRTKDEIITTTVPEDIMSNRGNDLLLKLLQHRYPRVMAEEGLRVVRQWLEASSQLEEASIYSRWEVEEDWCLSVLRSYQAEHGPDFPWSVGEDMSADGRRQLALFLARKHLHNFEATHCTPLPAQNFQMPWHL

[5] = target: T4, ABHD12 (Mus musculus, UniProt Q99LR1); assay: Competitive ABPP, mouse brain membrane proteome: ABHD12 band; conditions: tested concentration range 10^−8–10^−5 M
T4 sequence (Q99LR1 1-398): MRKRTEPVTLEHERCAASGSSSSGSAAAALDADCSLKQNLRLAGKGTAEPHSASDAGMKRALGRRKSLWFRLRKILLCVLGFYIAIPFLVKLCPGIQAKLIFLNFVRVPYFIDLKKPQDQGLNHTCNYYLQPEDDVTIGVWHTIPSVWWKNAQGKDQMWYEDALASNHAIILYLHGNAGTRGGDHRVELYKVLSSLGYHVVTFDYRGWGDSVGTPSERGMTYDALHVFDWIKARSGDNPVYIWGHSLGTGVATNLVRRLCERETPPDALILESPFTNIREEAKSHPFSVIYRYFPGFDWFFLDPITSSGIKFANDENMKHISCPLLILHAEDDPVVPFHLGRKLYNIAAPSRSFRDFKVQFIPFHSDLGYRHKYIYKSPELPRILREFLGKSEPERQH

[6] = target: T5, hMAGL (Homo sapiens, UniProt Q99685); assay: Hydrolase activity assay, hMAGL-HEK lysates; format: biochemical; conditions: hMAGL-HEK lysates
T5 construct: expressed in transfected cells; host or cells: HEK
T5 sequence (Q99685 1-303): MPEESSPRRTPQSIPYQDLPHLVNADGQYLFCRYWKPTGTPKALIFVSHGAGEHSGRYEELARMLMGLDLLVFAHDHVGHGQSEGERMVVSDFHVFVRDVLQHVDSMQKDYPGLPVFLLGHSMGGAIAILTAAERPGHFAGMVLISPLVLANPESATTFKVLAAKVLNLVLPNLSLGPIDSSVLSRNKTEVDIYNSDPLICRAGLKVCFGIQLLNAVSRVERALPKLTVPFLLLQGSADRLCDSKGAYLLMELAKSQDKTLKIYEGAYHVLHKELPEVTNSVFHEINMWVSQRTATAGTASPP

[7] = target: T6, MAGL (Mus musculus, UniProt O35678); assay: Competitive ABPP, mouse brain membrane proteome: MAGL doublet; conditions: at the highest concentration (10^−5 M)
T6 sequence (O35678 1-303): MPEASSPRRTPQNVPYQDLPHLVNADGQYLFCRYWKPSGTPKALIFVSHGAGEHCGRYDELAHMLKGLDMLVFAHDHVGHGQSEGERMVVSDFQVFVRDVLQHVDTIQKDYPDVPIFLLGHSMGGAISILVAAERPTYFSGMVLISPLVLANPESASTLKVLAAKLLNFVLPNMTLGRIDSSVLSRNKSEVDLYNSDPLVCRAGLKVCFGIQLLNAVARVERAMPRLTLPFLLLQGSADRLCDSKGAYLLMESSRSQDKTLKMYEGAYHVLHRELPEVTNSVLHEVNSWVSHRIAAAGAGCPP

sensitivity of hFAAH (in words) [1]: resistant
remaining activity at 1 µM ([1]; at 10^−6 M): 92.4%
IC50 [4]: 0.1 µM
IC50 [6]: 0.0933 µM
Compound: CCCCCCCCCC[C@@H]1C(=O)O[C@H]1CCc1ccc(OC)c(OC)c1 [Palmostatin B, palmostatin B]
inhibition of probe binding to ABHD6 [2]: inhibited probe binding; also recorded: also inhibited
IC50 [3]: 0.67 µM
inhibition of probe binding to ABHD12 [5]: dose-dependently inhibited probe binding; also recorded: dose-dependently inhibits probe labeling
inhibition of probe binding to MAGL [7]: inhibited probe binding; also recorded: also inhibited
